Holding throughout (format): functional
The test system of assay [1] is Candida albicans. The experiment in a line: Antifungal activity against fluconazole-resistant Candida albicans 904 assessed as inhibition of microbial growth after 24 hrs by broth microdilution method.
For assay [2], the system named is Pichia kudriavzevii. The experiment in a line: Antifungal activity against Candida krusei AS2.1045 measured after 24 hrs by broth microdilution assay.
Assay [3] concerns Aspergillus fumigatus. The experiment in a line: Antifungal activity against Aspergillus fumigatus CMGCC3.7795 measured after 72 hrs by broth microdilution assay.
The subject of assay [4] is Candida parapsilosis. The experiment in a line: Antifungal activity against Candida parapsilosis ATCC 22019 measured after 24 hrs by broth microdilution assay. To be noted: Lodderomyces parapsilosis.
For assay [5], the system named is Candida albicans. The experiment in a line: Antifungal activity against fluconazole-resistant Candida albicans 632 assessed as inhibition of microbial growth after 24 hrs by broth microdilution method.
Assay [6] relates to Candida albicans. The experiment in a line: Antifungal activity against fluconazole-resistant Candida albicans 17# assessed as inhibition of microbial growth after 24 hrs by broth microdilution method. In general terms: Broth dilution looks for growth in wells or tubes with falling amounts of substance.
Assay [7] has as its system Candida albicans. The experiment in a line: Antifungal activity against fluconazole-resistant Candida albicans CaR assessed as inhibition of microbial growth after 24 hrs by broth microdilution method.
Assay [8] relates to Candida albicans. The experiment in a line: Antifungal activity against Candida albicans ATCC SC5314 measured after 24 hrs by broth microdilution assay.
The subject of assay [9] is [Candida] zeylanoides. The experiment in a line: Antifungal activity against Candida zeylanoides CMGCC2.3739 measured after 24 hrs by broth microdilution assay. To be noted: Dujonia zeylanoides.
Assay [10] deals with Cryptococcus neoformans. The experiment in a line: Antifungal activity against Cryptococcus neoformans CMGCC2.3161 measured after 72 hrs by broth microdilution assay.
For assay [11], the system named is Candida albicans. The experiment in a line: Antifungal activity against fluconazole-resistant Candida albicans 901 assessed as inhibition of microbial growth after 24 hrs by broth microdilution method.
Assay [12] has as its system Candida albicans. The experiment in a line: Antifungal activity against Candida albicans CPCC400616 measured after 24 hrs by broth microdilution assay.
For assay [13], the system named is Nakaseomyces glabratus. The experiment in a line: Antifungal activity against Candida glabrata measured after 24 hrs by broth microdilution assay.
The subject of assay [14] is Candida albicans. The experiment in a line: Potency index, ratio of fluconazole MIC to test compound MIC for Candida albicans CPCC400616 measured after 24 hrs by broth microdilution assay.

Converted amounts (≈) assume the structure as drawn.

Turning to `Fc1ccc(C(Cn2cncn2)[Se]Cc2ccccc2)c(F)c1` (stereo not given), the MIC in assay [1] was 16 µg/mL; in assay [2], 4 µg/mL (≈ 10.6 µM); in assay [3], 8 µg/mL (≈ 21.1 µM); in assay [4], 16 µg/mL (≈ 42.3 µM); in assay [5], more than 128 µg/mL; in assay [6] it was 32 µg/mL. In addition, the MIC in assay [7] was 128 µg/mL; in assay [8] it was 0.06 µg/mL (≈ 0.159 µM); in assay [9] it was 8 µg/mL (≈ 21.1 µM); in assay [10] it was 4 µg/mL (≈ 10.6 µM); in assay [11] it was 16 µg/mL; in assay [12] it was 0.5 µg/mL (≈ 1.32 µM). The same molecule returned an MIC in assay [13] of 2 µg/mL (≈ 5.29 µM).
With `COc1ccc(C[Se]C(Cn2cncn2)c2ccc(Cl)cc2Cl)cc1` (stereo not given), the MIC in assay [1] is 128 µg/mL; in assay [2], 64 µg/mL (≈ 145 µM); in assay [3] it was 4 µg/mL (≈ 9.07 µM); in assay [4], 32 µg/mL (≈ 72.5 µM); in assay [5] it was more than 128 µg/mL; in [6], 32 µg/mL. Moreover, the MIC in assay [7] stood at 128 µg/mL; in [8], 1 µg/mL (≈ 2.27 µM); in assay [9], 32 µg/mL (≈ 72.5 µM); in [10], 16 µg/mL (≈ 36.3 µM); in assay [11], 128 µg/mL; in assay [12], 16 µg/mL (≈ 36.3 µM). Inhibition of growth in assay [13] (MIC) required 4 µg/mL (≈ 9.07 µM).
For `Clc1ccc(C(Cn2cncn2)[Se]Cc2ccccc2Cl)c(Cl)c1` (stereo not given), the MIC in assay [1] is 32 µg/mL; in assay [2] it was 0.06 µg/mL (≈ 0.135 µM); in [3] it was 16 µg/mL (≈ 35.9 µM); in [4] it was 8 µg/mL (≈ 18 µM); in assay [5] it was more than 128 µg/mL; in assay [6], 8 µg/mL. For the same molecule, the MIC in assay [7] was more than 128 µg/mL; in assay [8], 0.13 µg/mL (≈ 0.292 µM); in assay [9], 16 µg/mL (≈ 35.9 µM); in assay [10] it was 2 µg/mL (≈ 4.49 µM); in assay [11] it was more than 128 µg/mL; in assay [12], 0.03 µg/mL (≈ 0.0673 µM). Moreover, the MIC in [13] stood at 4 µg/mL (≈ 8.98 µM).
As to `Cc1ccccc1[Se]C(Cn1ccnc1)c1ccc(F)cc1F` (stereo not given), the MIC in [1] is 1 µg/mL; in assay [2], 0.02 µg/mL (≈ 0.053 µM); in assay [3], 8 µg/mL (≈ 21.2 µM); in [4], 0.13 µg/mL (≈ 0.345 µM); in assay [5], 4 µg/mL; in [6] it was 4 µg/mL. Also, the MIC in assay [7] amounted to 8 µg/mL; in assay [8] it was 0.02 µg/mL (≈ 0.053 µM); in [9], 0.5 µg/mL (≈ 1.33 µM); in assay [10] it was 0.5 µg/mL (≈ 1.33 µM); in [11] it was 2 µg/mL; in [12] it was 0.13 µg/mL (≈ 0.345 µM). The molecule also showed an MIC in assay [13] of 1 µg/mL (≈ 2.65 µM). Further, the Ratio in [14] is recorded as 8.
As to `Fc1ccc(C[Se]C(Cn2cncn2)c2ccc(Cl)cc2Cl)cc1` (stereo not given), the MIC in assay [1] was more than 128 µg/mL; in assay [2] it was 128 µg/mL (≈ 298 µM); in [3] it was 16 µg/mL (≈ 37.3 µM); in assay [4], 64 µg/mL (≈ 149 µM); in assay [5] it was more than 128 µg/mL; in [6], more than 128 µg/mL. Further, the MIC in assay [7] is more than 128 µg/mL; in assay [8], 0.13 µg/mL (≈ 0.303 µM); in [9], 64 µg/mL (≈ 149 µM); in assay [10] it was 8 µg/mL (≈ 18.6 µM); in assay [11], more than 128 µg/mL; in assay [12], 2 µg/mL (≈ 4.66 µM). This molecule returned an MIC in [13] of 4 µg/mL (≈ 9.32 µM).
As to `Clc1ccc(C[Se]C(Cn2cncn2)c2ccc(Cl)cc2Cl)cc1` (stereo not given), the MIC in assay [1] is more than 128 µg/mL; in [2], 128 µg/mL (≈ 287 µM); in [3], 16 µg/mL (≈ 35.9 µM); in assay [4] it was 64 µg/mL (≈ 144 µM); in assay [5], more than 128 µg/mL; in [6], more than 128 µg/mL. Also, the MIC in assay [7] is more than 128 µg/mL; in assay [8], 2 µg/mL (≈ 4.49 µM); in assay [9], 128 µg/mL (≈ 287 µM); in [10], 16 µg/mL (≈ 35.9 µM); in assay [11], more than 128 µg/mL; in [12], 16 µg/mL (≈ 35.9 µM). Moreover, the MIC in assay [13] worked out at 2 µg/mL (≈ 4.49 µM).
Regarding `Cc1ccc(C[Se]C(Cn2cncn2)c2ccc(Cl)cc2Cl)cc1` (stereo not given), the MIC in assay [1] is more than 128 µg/mL; in [2], 64 µg/mL (≈ 151 µM); in assay [3] it was 16 µg/mL (≈ 37.6 µM); in assay [4], 64 µg/mL (≈ 151 µM); in assay [5], more than 128 µg/mL; in assay [6] it was more than 128 µg/mL. The MIC in assay [7] was more than 128 µg/mL; in assay [8], 2 µg/mL (≈ 4.7 µM); in [9], 128 µg/mL (≈ 301 µM); in assay [10], 32 µg/mL (≈ 75.3 µM); in [11] it was more than 128 µg/mL; in assay [12], 16 µg/mL (≈ 37.6 µM). Also, 2 µg/mL (≈ 4.7 µM) was the least that counted as inhibitory in [13] (MIC).
For `Cc1ccc(C[Se]C(Cn2cncn2)c2ccc(F)cc2F)cc1` (stereo not given), the MIC was more than 128 µg/mL in [1]; 128 µg/mL (≈ 326 µM) in assay [2]; 8 µg/mL (≈ 20.4 µM) in assay [3]; 128 µg/mL (≈ 326 µM) in assay [4]; more than 128 µg/mL in assay [5]; 64 µg/mL in [6]. Further, the MIC in assay [7] was more than 128 µg/mL; in assay [8], 2 µg/mL (≈ 5.1 µM); in assay [9], 32 µg/mL (≈ 81.6 µM); in assay [10] it was 4 µg/mL (≈ 10.2 µM); in assay [11], more than 128 µg/mL; in assay [12], 2 µg/mL (≈ 5.1 µM). The MIC in [13] is 2 µg/mL (≈ 5.1 µM).

As usually defined, the MIC is the lowest concentration found to suppress growth.

(Values after ChEMBL document CHEMBL4813985, “Lead optimization generates selenium-containing miconazole CYP51 inhibitors with improved pharmacological profile for the treatment of fungal infections” (Eur J Med Chem, 2021).)
